# Patent US8003649B2 (AstraZeneca AB, priority 2007, dated 2011)
# Target: T1, Androgen Receptor (AR) (Homo sapiens, UniProt P10275, T878A)
# T1 construct: cell based immuno-fluorescence assay using the LNCaP prostate epithelial cell line; endogenous in cells; host or cells: LNCaP clone FGC (ATCC CRL-1740)
# T1 sequence (P10275 1-920 T878A): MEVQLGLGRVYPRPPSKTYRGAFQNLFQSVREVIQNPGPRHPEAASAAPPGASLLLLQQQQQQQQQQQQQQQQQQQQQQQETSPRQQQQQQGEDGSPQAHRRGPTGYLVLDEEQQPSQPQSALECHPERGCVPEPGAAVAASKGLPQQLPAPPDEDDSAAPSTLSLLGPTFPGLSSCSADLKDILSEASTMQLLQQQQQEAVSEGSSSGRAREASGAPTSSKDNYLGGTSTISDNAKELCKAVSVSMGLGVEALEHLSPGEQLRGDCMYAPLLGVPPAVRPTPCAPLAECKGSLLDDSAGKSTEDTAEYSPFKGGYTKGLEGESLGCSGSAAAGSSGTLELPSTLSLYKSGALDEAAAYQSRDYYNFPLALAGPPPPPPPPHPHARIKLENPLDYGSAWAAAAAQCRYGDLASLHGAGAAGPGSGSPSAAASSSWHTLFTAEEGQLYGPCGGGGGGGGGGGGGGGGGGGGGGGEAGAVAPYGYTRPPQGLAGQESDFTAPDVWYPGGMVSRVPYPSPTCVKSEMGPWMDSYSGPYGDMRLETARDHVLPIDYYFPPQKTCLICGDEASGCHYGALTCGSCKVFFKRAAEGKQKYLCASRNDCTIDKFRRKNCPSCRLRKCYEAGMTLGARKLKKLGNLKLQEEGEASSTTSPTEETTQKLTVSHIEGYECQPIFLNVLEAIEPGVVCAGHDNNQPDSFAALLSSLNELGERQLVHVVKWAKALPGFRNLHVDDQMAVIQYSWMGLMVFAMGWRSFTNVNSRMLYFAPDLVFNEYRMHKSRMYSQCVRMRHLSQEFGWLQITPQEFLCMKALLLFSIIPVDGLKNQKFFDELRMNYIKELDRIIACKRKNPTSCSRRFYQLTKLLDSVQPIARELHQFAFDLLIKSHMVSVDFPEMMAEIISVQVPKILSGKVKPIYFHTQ
# Experiment: LNCaP Androgen Receptor Down-regulation Cell Assay (immunofluorescence end point)
# Type: cell-based
# Conditions: LNCaP prostate carcinoma cells, compound incubation 20-22 hours, 50% reduction of the AR signal; read-out: Androgen Receptor Down-regulation Assay (a) IC50/μM
# Outline: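 LNCaP cells in medium with 5% charcoal-stripped FBS were plated overnight, then treated with a compound dilution series for 20-22 h at 37° C. After fixation, permeabilisation and immunostaining, AR-associated green fluorescence was quantified by laser-scanning microplate cytometry; AR down-regulation expressed as IC50 from fitted dose-response curves.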
row,DC50,Compound
1,2.7 µM,"FC(F)(F)c1nnc2ccc(N3CCN(Cc4n[nH]c5ccccc45)CC3)nn12 [Example 285, 6-[4-(1H-indazol-3-ylmethyl)piperazin-1-yl]-3-(trifluoromethyl)[1,2,4]triazolo[4,3-b]pyridazine]"
2,8.5 µM,N#Cc1ccc2[nH]cc(CN3CCN(c4ccc5nnc(C(F)F)n5n4)CC3)c2c1 [Example 286]
3,2 µM,FC(F)c1nnc2ccc(N3CCN(Cc4c[nH]c5ccc(Cl)cc45)CC3)nn12 [Example 287]
4,3.3 µM,FC(F)c1nnc2ccc(N3CCN(Cc4c[nH]c5ccc(Br)cc45)CC3)nn12 [Example 288]
5,2.7 µM,FC(F)c1nnc2ccc(N3CCN(Cc4c[nH]c5cccc(Cl)c45)CC3)nn12 [Example 289]
6,5.8 µM,Fc1ccc2[nH]cc(CN3CCN(c4ccc5nnc(C(F)F)n5n4)CC3)c2c1 [Example 290]
7,> 9.7 µM,FC(F)c1nnc2ccc(N3CCN(Cc4c(Cl)[nH]c5ccccc45)CC3)nn12 [Example 291]
8,7 µM,Fc1ccc2c(CN3CCN(c4ccc5nnc(C(F)F)n5n4)CC3)c[nH]c2c1 [Example 292]
9,9.5 µM,"FC(F)(F)c1nnc2ccc(N3CCC(COC4CCOCC4)CC3)nn12 [Example 294, 6-[4-[(tetrahydro-2H-pyran-4-yloxy)methyl]piperidin-1-yl]-3-(trifluoromethyl)[1,2,4]triazolo[4,3-b]pyridazine]"
10,3.4 µM,FC(F)(F)c1nnc2ccc(N3CCC(COCC4CC4)CC3)nn12 [Example 295]
11,2.1 µM,COCCOCC1CCN(c2ccc3nnc(C(F)(F)F)n3n2)CC1 [Example 296]
12,5.7 µM,CC(C)OCC1CCN(c2ccc3nnc(C(F)(F)F)n3n2)CC1 [Example 298]
13,0.84 µM,FC(F)(F)c1nnc2ccc(N3CCC(c4noc(-c5cccc(Cl)c5)n4)CC3)nn12 [Example 299]
14,1 µM,Fc1ccc(-c2nc(C3CCN(c4ccc5nnc(C(F)(F)F)n5n4)CC3)no2)cc1 [Example 300]
15,1.8 µM,FC(F)(F)c1nnc2ccc(N3CCC(c4noc(-c5ccccc5)n4)CC3)nn12 [Example 301]
16,1.1 µM,Fc1cccc(-c2nc(C3CCN(c4ccc5nnc(C(F)(F)F)n5n4)CC3)no2)c1 [Example 302]
17,5.8 µM,N#Cc1cccc(-c2nc(C3CCN(c4ccc5nnc(C(F)(F)F)n5n4)CC3)no2)c1 [Example 303]
18,1.8 µM,"FC(F)(F)c1nnc2ccc(N3CCC(OCC4CC4)CC3)nn12 [Example 304, 6-[4-(cyclopropylmethoxy)piperidin-1-yl]-3-(trifluoromethyl)[1,2,4]triazolo[4,3-b]pyridazine]"
19,3.4 µM,"C[C@H](c1ccc(C#N)cc1)N1CCN(c2ccc3nnc(C(F)(F)F)n3n2)CC1 [Example 307, 4-[(1R)-1-[4-[3-(trifluoromethyl)[1,2,4]triazolo[4,3-b]pyridazin-6-yl]piperazin-1-yl]ethyl]benzonitrile]"
20,1.4 µM,"C[C@H](c1ccc(F)cc1)N1CCN(c2ccc3nnc(C(F)(F)F)n3n2)CC1 [Example 308, 6-[4-[(1R)-1-(4-fluorophenyl)ethyl]piperazin-1-yl]-3-(trifluoromethyl)[1,2,4]triazolo[4,3-b]pyridazine]"
21,1.6 µM,"CC(C)(c1ccc(F)cc1)N1CCN(c2ccc3nnc(C(F)(F)F)n3n2)CC1 [Example 309, 6-[4-[1-(4-fluorophenyl)-1-methylethyl]piperazin-1-yl]-3-(trifluoromethyl)[1,2,4]triazolo[4,3-b]pyridazine]"
22,3.2 µM,"OC1(c2cccc(F)c2)CCN(c2ccc3nnc(C(F)(F)F)n3n2)CC1 [Example 310, 4-(3-fluorophenyl)-1-[3-(trifluoromethyl)[1,2,4]triazolo[4,3-b]pyridazin-6-yl]piperidin-4-ol]"
23,5 µM,COc1ccc(C2(O)CCN(c3ccc4nnc(C(F)(F)F)n4n3)CC2)cc1 [Example 311]
24,2.6 µM,COc1cccc(C2(O)CCN(c3ccc4nnc(C(F)(F)F)n4n3)CC2)c1 [Example 312]
25,1.8 µM,OC1(c2cccc(Cl)c2)CCN(c2ccc3nnc(C(F)(F)F)n3n2)CC1 [Example 313]

row,DC50,Compound
1,4.6 µM,COc1ccccc1C1(O)CCN(c2ccc3nnc(C(F)(F)F)n3n2)CC1 [Example 314]
2,2 µM,"OC1(c2ccccc2Cl)CCN(c2ccc3nnc(C(F)(F)F)n3n2)CC1 [Example 315, 4-(2-chlorophenyl)-1-[3-(trifluoromethyl)[1,2,4]triazolo[4,3-b]pyridazin-6-yl]piperidin-4-ol]"
3,4.1 µM,"N#Cc1ccccc1C1(O)CCN(c2ccc3nnc(C(F)(F)F)n3n2)CC1 [Example 317, 2-[4-hydroxy-1-[3-(trifluoromethyl)[1,2,4]triazolo[4,3-b]pyridazin-6-yl]piperidin-4-yl]benzonitrile]"
4,8.6 µM,"OC1(c2cncc(C(F)(F)F)c2)CCN(c2ccc3nnc(C(F)(F)F)n3n2)CC1 [Example 320, 4-[5-(trifluoromethyl)pyridin-3-yl]-1-[3-(trifluoromethyl)[1,2,4]triazolo[4,3-b]pyridazin-6-yl]piperidin-4-ol]"
5,8 µM,"COc1ccc(C2(O)CCN(c3ccc4nnc(C(F)(F)F)n4n3)CC2)cn1 [Example 321, 4-(6-methoxypyridin-3-yl)-1-[3-(trifluoromethyl)[1,2,4]triazolo[4,3-b]pyridazin-6-yl]piperidin-4-ol]"
6,9.6 µM,"Cc1ccnc(C2(O)CCN(c3ccc4nnc(C(F)(F)F)n4n3)CC2)c1 [Example 322, 4-(4-methylpyridin-2-yl)-1-[3-(trifluoromethyl)[1,2,4]triazolo[4,3-b]pyridazin-6-yl]piperidin-4-ol]"
7,> 8.1 µM,"OC1(c2ccc(Cl)nc2)CCN(c2ccc3nnc(C(F)(F)F)n3n2)CC1 [Example 323, 4-(6-chloropyridin-3-yl)-1-[3-(trifluoromethyl)[1,2,4]triazolo[4,3-b]pyridazin-6-yl]piperidin-4-ol]"
8,5.9 µM,"OC1(c2nccs2)CCN(c2ccc3nnc(C(F)(F)F)n3n2)CC1 [Example 324, 4-(1,3-thiazol-2-yl)-1-[3-(trifluoromethyl)[1,2,4]triazolo[4,3-b]pyridazin-6-yl]piperidin-4-ol]"
9,> 1.2 µM,"FC(F)(F)c1nnc2ccc(N3CCC(c4c[nH]c5ncccc45)CC3)nn12 [Example 325, 6-[4-(1H-pyrrolo[2,3-b]pyridin-3-yl)piperidin-1-yl]-3-(trifluoromethyl)[1,2,4]triazolo[4,3-b]pyridazine]"
10,2 µM,FC(F)(F)c1nnc2ccc(N3CCC(c4c[nH]c5ccncc45)CC3)nn12 [Example 326]
11,1 µM,FC(F)(F)c1nnc2ccc(N3CCC(c4c[nH]c5cnccc45)CC3)nn12 [Example 327]
12,0.75 µM,FC(F)(F)c1nnc2ccc(N3CCC(c4c[nH]c5cccnc45)CC3)nn12 [Example 328]
13,2.7 µM,COC(=O)c1ccccc1C1CCN(c2ccc3nnc(C(F)(F)F)n3n2)C1 (stereo not shown) [Example 333]
14,1.1 µM,COC(=O)c1cccc(C2CCN(c3ccc4nnc(C(F)(F)F)n4n3)C2)c1 (stereo not shown) [Example 334]
15,1.5 µM,FC(F)(F)c1ccc(C2CCN(c3ccc4nnc(C(F)(F)Cl)n4n3)C2)cc1 (stereo not shown) [Example 335]
16,2.4 µM,FC(F)(F)c1cccc(C2CCN(c3ccc4nnc(C(F)(F)Cl)n4n3)C2)c1 (stereo not shown) [Example 336]
17,0.77 µM,"FC(F)(Cl)c1nnc2ccc(N3CCN(c4c(Cl)cncc4Cl)CC3)nn12 [Example 339, 3-[chloro(difluoro)methyl]-6-[4-(3,5-dichloropyridin-4-yl)piperazin-1-yl][1,2,4]triazolo[4,3-b]pyridazine]"
18,2.1 µM,N#Cc1ccc(CN2CCN(c3ccc4nnc(C(F)(F)Cl)n4n3)CC2)cc1 [Example 342]
19,1.7 µM,N#Cc1cccc(CN2CCN(c3ccc4nnc(C(F)(F)Cl)n4n3)CC2)c1 [Example 343]
20,0.29 µM,FC(F)(Cl)c1nnc2ccc(N3CCN(Cc4cccc(Br)c4)CC3)nn12 [Example 344]
21,1.1 µM,Fc1cccc(CN2CCN(c3ccc4nnc(C(F)(F)Cl)n4n3)CC2)c1 [Example 345]
22,8.5 µM,FC(F)(F)c1cccc(CN2CCN(c3ccc4nnc(C(F)(F)Cl)n4n3)CC2)c1 [Example 346]
23,0.97 µM,FC(F)(F)c1cccc(CN2CCN(c3ccc4nnc(C(F)(F)Cl)n4n3)CC2)c1 [Example 347]
24,1 µM,FC(F)(Cl)c1nnc2ccc(N3CCN(Cc4ccc(Br)cc4)CC3)nn12 [Example 348]
